The source of these data is US10087142B2, “Azetidine derivatives useful as modulators of cortical cathecolaminergic neurotransmission” (Integrative Research Laboratories Sweden AB, priority 2015, dated 2018).

Assay [1] has as its system DOPAC. In words: Neurochemistry: tissue levels of DOPAC in brain regions. The note with it: 33 μmol/kg s.c., rats, 65 min before sacrifice, n = 5. It counts as in vivo, rat. The source says: The change in turnover of dopamine in the terminal areas of the ascending dopaminergic projections of the mammalian brain can be illustrated by measuring of changes in biochemical indices in the brain e.g. changes in concentrations of dopamine metabolites such as 3,4-dihydroxyphenyl-acetic acid (DOPAC) in the striatum and frontal cortex.
The measurement of the tissue content of DOPAC is well established in the field of research since the 1960's. In short, male Sprague-Dawley rats are administered the test compound 60 minutes prior to decapitation. The brain is rapidly taken out and dissected. The striatum is rapidly frozen and subsequently quantitatively analyzed with respect to its content of DOPAC by means of HPLC and electrochemical detection. The number of animals used for each test compound/vehicle is 5/group.
After the behavioural activity sessions, the rats were decapitated and their brains rapidly taken out and put on an ice-cold petri-dish. The brains were dissected into a right and a left part of which the right part was analyzed for neurochemicals with HPLC and the left part was analyzed for gene expression. The limbic forebrain, the striatum, the frontal cortex, the hippocampus and the remaining hemispheral parts of each rat were dissected and frozen. Each brain part was subsequently analyzed with respect to its content of monoamines and their metabolites.
The monoamine transmitter substances (NA (noradrenaline), DA (dopamine), 5-HT (serotonin)) as well as one corresponding acid, (DOPAC (3,4-dihydroxyphenylacetic acid), were quantified in brain tissue homogenates by HPLC separations and electrochemical detection.
The analytical method is based on two chromatographic separations dedicated for amines or acids. Two chromatographic systems share a common auto injector with a 10-port valve and two sample loops for simultaneous injection on the two systems. Both systems are equipped with a reverse phase column (Luna C18 (2), dp 3 μm, 50*2 mm i.d., Phenomenex) and electrochemical detection is accomplished at two potentials on glassy carbon electrodes (MF-1000, Bioanalytical Systems, Inc.). The column effluent is passed via a T-connection to the detection cell or to a waste outlet. This is accomplished by two solenoid valves, which block either the waste or detector outlet. By preventing the chromatographic front from reaching the detector, better detection conditions are achieved. The aqueous mobile phase (0.4 ml/min) for the acid system contains citric acid 14 mM, sodium citrate 10 mM, Methanol 15% (v/v) and EDTA 0.1 mM. Detection potentials relative to Ag/AgCl reference are 0.45 and 0.60V. […] Detection potentials relative to Ag/AgCl reference are 0.45 and 0.65V.

For assay [2], the system named is monoamine transmitters (NA, DA and 5-HT). The experiment in a line: In vivo brain microdialysis of monoamines in striatum and frontal cortex. Conditions: 50 μmol/kg s.c., rats; for response vs control in vivo at 50 µmol/kg: Rattus norvegicus, sc. Details: species or system rat. The source says:
The microdialysis technique (See, for instance, Collin and Ungerstedt, Microdialysis: user's guide, Carnegie Medicin, Stockholm, 1988) is a well-established technique for measuring extracellular levels of neurotransmitters (Ungerstedt, J Int Med, 1991, 230; 365-73). The microdialysis technique was used to measure the effect of compounds disclosed herein upon the efflux of monoamine transmitters (NA, DA and 5-HT) in striatum and frontal cortex in conscious, freely moving rats.
Male Sprague-Dawley rats weighing 280-320 g were used throughout the experiments. Before the experiment the animals were housed in groups, maximum five animals in each cage, with free access to water and food. The animals were housed at least one week prior to surgery and use in the experiments.
A modified version (Waters et al., J Neural Transm Gen Sect, 1994, 98(1); 39-55) of the I-shaped probe (Santiago and Westerink, N-S Arch Pharmacol, 1990, 342; 407-14) with the AN69 polyacrylonitrile/sodium methyl sulfonate copolymer (HOSPAL; o.d/i.d. 310/220 μm: dialysis membrane (Gambro, Lund, Sweden) was used in the microdialysis experiments. In the dorsal striatum, probes with an exposed length of 3 mm of dialysis membrane were used and in the prefrontal cortex the corresponding length was 2.5 mm. The rats were operated under isoflurane inhalation anesthesia while mounted into a Kopf stereotaxic instrument. Coordinates were calculated relative to bregma; dorsal striatum AP+1.0, ML±2.6, DV 6.2; Pf cortex, AP 15+3.2, ML+1.2, DV −4.08°, according to Paxinos and Watson (New York, Academic Press, 1986; FIG. 8 and FIG. 14). The dialysis probe was positioned in a burr hole under stereotaxic guidance and cemented with phosphatine dental cement (DAB Dental).
The rats were housed individually in cages for 48 h before the dialysis experiments, allowing them to recover from surgery and minimizing the risk of drug interactions with the anesthetics during the following experiments. During this period the rats had free access to food and water.
On the day of the experiment the rats were connected to a micro-perfusion pump via a swivel and were replaced in the cage where they could move freely within its confinements. The perfusion medium was a Ringer's solution containing (in mmol/I): NaCl; 140, CaCl2; 1.2, KCl; 3.0, MgCl2; 1.0 (Moghaddam and Bunney. Neurochem., 1989, 53; 652-4). The pump was set to a perfusion speed of 2 μl/min and 40 μl sample volume were collected every 20 min.
The rats were perfused for at least 40 min before sampling began. Five fractions of each 20 min were collected and the last three were used for the establishment of the baseline. After collection of baseline fractions, the pharmacological challenge to the dialysis experiment started. Test compounds were administrated by injection (s.c.) in a volume of 5 ml/kg, with 0.9% NaCl (saline) as vehicle.
The analytical method were based on two chromatographic separations dedicated for amines or acids. Two chromatographic systems shared a common auto injector with a 10-port valve and two sample loops for simultaneous injection on the two systems.
The acids were separated by reversed phase chromatography while the amines were separated by reversed phase ion pairing chromatography preceded by a reverse phase separation in a column switching configuration. Three separation columns (Luna C18 (2), dp 3 μm, 2 mm i.d., Phenomenex) of different lengths were used. Electrochemical detection was accomplished on glassy carbon electrodes (MF-1000, Bioanalytical Systems, Inc.)
The aqueous mobile phase (0.6 ml/min) for the acid system contained citric acid (40 mM, dipotassium hydrogen phosphate 10 mM, methanol 8-11% (v/v) and EDTA 0.1 mM. Column length was 30 mm and detection potential relative to Ag/AgCl reference was 0.74V. […]

Assay [3] concerns non-pre-treated Sprague-Dawley rats. In words: Locomotor activity in drug-naïve rats (behaviour test). It is filed as in vivo, rat. The note with it: recorded 60 minutes, n = 5. The method, then: The effect of compounds in the present disclosure on locomotor activity in drug-naïve rats was also investigated. The animals were placed in the motility meters immediately after drug administration and locomotor activity was recorded for 60 minutes (counts/60 min±SEM). The results are presented as percent of control.
Behavioural activity was measured using eight Digiscan activity monitors (RXYZM (16) TAO, Omnitech Electronics, Columbus, Ohio, USA), connected to an Omnitech Digiscan analyzer and an Apple Macintosh computer equipped with a digital interface board (NB DIO-24, National Instruments, USA). Each activity monitor consisted of a quadratic metal frame (W×L=40 cm×40 cm) equipped with photo beam sensors. During measurements of behavioural activity, a rat was put in a transparent acrylic cage (W×L×H, 40×40×30 cm) which in turn was placed in the activity monitor. Each activity monitor was equipped with three rows of infrared photo beam sensors, each row consisting of 16 sensors. Two rows were placed along the front and the side of the floor of the cage, at a 90° angle, and the third row was placed 10 cm above the floor to measure vertical activity. Photo beam sensors were spaced 2.5 cm apart. Each activity monitor was fitted in an identical sound and light attenuating box containing a weak house light and a fan.
The computer software was written using object oriented programming (LabVIEW™, National instruments, Austin, Tex., USA).
Behavioural data from each activity monitor, representing the position (horizontal center of gravity and vertical activity) of the animal at each time, were recorded at a sampling frequency of 25 Hz and collected using a custom written LABView™ application. The data from each recording session were stored and analyzed with respect to distance traveled. Each behavioural recording session lasted 60 min, starting approximately 5 min after the injection of test compound.
Compounds disclosed herein have been tested for effects on spontaneous locomotor activity in non-pre-treated Sprague-Dawley rats (based on accumulated distance traveled 0-60 min post dosing), and with doses up to 33 μmol/kg (s.c.).

The structures appear in SMILES notation. Where two headings read alike, the source gives them in different places. Marks after values point to notes of the source that are not given here.

On to `Fc1ccc(F)c(C(F)C2CNC2)c1.O=C(O)C(=O)O` (centres unmarked) [Example 6, 3-[(2,5-Difluorophenyl)(Fluoro)Methyl]Azetidine Oxalate Salt], for which, in assay [1] (frontal cortex tissue), the “DOPAC frontal cortex ± SEM” value was 139 ± 10% of control means. In addition, the “DOPAC striatum ± SEM” value in assay [1] (striatum tissue) was 76 ± 3% of control means. Besides, in assay [2] (striatum dialysate), the “NA Stri ± SEM, maximum effect compared to baseline” value was 1375^a percent of control. The response vs control in vivo at 50 µmol/kg in assay [2] (frontal cortex dialysate, read-out: 5-HT FC ± SEM, maximum effect compared to baseline) was 182 ± 12%; in assay [2] (striatum dialysate, read-out: 5-HT Stri ± SEM, maximum effect compared to baseline) it was 208%; in assay [2] (striatum dialysate, read-out: DA Stri ± SEM, maximum effect compared to baseline) it was 242%.
For `Cl.Fc1cccc(C(F)C2CNC2)c1F` (single isomer, unassigned; (+)) [Example 2, (+)-3-[(2,3-Difluorophenyl)(Fluoro)Methyl]Azetidine Hydrochloric Acid Salt], the “locomotor activity, percent of control means” value in assay [3] (11 μmol/kg s.c.) was 152%. Also, the “locomotor activity, percent of control means” value in assay [3] (33 μmol/kg s.c.) came to 159%*. Further, in assay [2] (frontal cortex dialysate), the “5-HT FC ± SEM, maximum effect compared to baseline” value is given as 253 ± 92^b percent of control. Further, in assay [2] (striatum dialysate), the “5-HT Stri ± SEM, maximum effect compared to baseline” value is on record as 249 ± 5^b percent of control; the “DA Stri ± SEM, maximum effect compared to baseline” value was 149 ± 7^b percent of control; the “NA Stri ± SEM, maximum effect compared to baseline” value was 126 ± 7^b percent of control. Further, in assay [2] (frontal cortex dialysate, read-out: DA FC ± SEM, maximum effect compared to baseline), the response vs control in vivo at 50 µmol/kg worked out at 580 ± 223%. Moreover, in assay [2] (frontal cortex dialysate, read-out: NA FC ± SEM, maximum effect compared to baseline), the response vs control in vivo at 50 µmol/kg was determined as 394 ± 273%.
